Literature values as cited in PMC9516332 (Frontiers in Oncology, 2022).
Like-named read-outs stand apart in the source and are kept apart here.

Tests used:
[1] = molecular target: panel of 255 wild-type kinases (Homo sapiens, UniProt P14616); settings: kinase IRR, 1 µmol/L single concentration, cited from earlier work
[2] = molecular target: panel of 255 wild-type kinases (Homo sapiens, UniProt Q14289); settings: kinase PYK2, 1 µmol/L single concentration, cited from earlier work
[3] = molecular target: panel of 255 wild-type kinases (Homo sapiens, UniProt Q16539); settings: p38α, 1 µmol/L single concentration, cited from earlier work
[4] = molecular target: panel of 255 wild-type kinases (Homo sapiens, UniProt P49760); settings: kinase CLK2, 1 µmol/L single concentration, cited from earlier work
[5] = molecular target: panel of 255 wild-type kinases (Homo sapiens, UniProt P10721); settings: kinase KIT, 1 µmol/L single concentration, cited from earlier work
[6] = molecular target: panel of 255 wild-type kinases (Homo sapiens, UniProt P07947); settings: kinase YES, 1 µmol/L single concentration, cited from earlier work
[7] = molecular target: panel of 255 wild-type kinases (Homo sapiens, UniProt Q9UPE1); settings: MSSK1, 1 µmol/L single concentration, cited from earlier work
[8] = molecular target: panel of 255 wild-type kinases (Homo sapiens, UniProt O60674); settings: kinase JAK2, 1 µmol/L single concentration, cited from earlier work
[9] = molecular target: panel of 255 wild-type kinases (Homo sapiens, UniProt Q9P0L2); settings: MARK1, 1 µmol/L single concentration, cited from earlier work
[10] = molecular target: panel of 255 wild-type kinases (Homo sapiens, UniProt P08922); settings: cited from earlier work
[11] = molecular target: panel of 255 wild-type kinases (Homo sapiens, UniProt Q8IU85); settings: CaMK1δ kinase assay, 1 µmol/L single concentration, cited from earlier work
[12] = molecular target: panel of 255 wild-type kinases (Homo sapiens, UniProt P06493); settings: CDC2/CycB1 kinase assay, 1 µmol/L single concentration, cited from earlier work
[13] = molecular target: panel of 255 wild-type kinases (Homo sapiens, UniProt P04629); settings: kinase TRKA, 1 µmol/L single concentration, cited from earlier work
[14] = molecular target: panel of 255 wild-type kinases (Homo sapiens, UniProt P23443); settings: p70S6K, 1 µmol/L single concentration, cited from earlier work
[15] = molecular target: panel of 255 wild-type kinases (Homo sapiens, UniProt Q13557); settings: CaMK2δ kinase assay, 1 µmol/L single concentration, cited from earlier work
[16] = molecular target: panel of 255 wild-type kinases (Homo sapiens, UniProt Q00535); settings: CDK5/p25 kinase assay, 1 µmol/L single concentration, cited from earlier work
[17] = molecular target: panel of 255 wild-type kinases (Homo sapiens, UniProt Q13153); settings: PAK1, 1 µmol/L single concentration, cited from earlier work
[18] = molecular target: panel of 255 wild-type kinases (Homo sapiens, UniProt P49674); settings: kinase CK1ε, 1 µmol/L single concentration, cited from earlier work
[19] = molecular target: panel of 255 wild-type kinases (Homo sapiens, UniProt O43683); settings: BUB1/BUB3 kinase assay; 1 µmol/L single concentration; ref DOI: 10.1158/1535-7163.MCT-18-0877; cited from earlier work
[20] = ref DOI: 10.1158/1535-7163.MCT-18-0877
[21] = kinase ROS, 1 µmol/L single concentration, ref DOI: 10.1158/1535-7163.MCT-18-0877
[22] = ref DOI: 10.1371/journal.pone.0092146
[23] = kinase ROS, 1 µmol/L single concentration, ref DOI: 10.1371/journal.pone.0092146

SMILES	%-inhibition at 1 µmol/L, IRR [1, 20]	%-inhibition at 1 µmol/L, PYK2 [2, 20]	%-inhibition, p38α [3, 20]	%-inhibition at 1 µmol/L, YES [6, 20]	%-inhibition, MSSK1 [7, 20]	%-inhibition at 1 µmol/L, JAK2 [8, 20]	%-inhibition CDC2/CycB1 [12, 20]	%-inhibition, p70S6K [14, 20]	%-inhibition BUB1/BUB3 [19]	%-inhibition, p38α [3, 22]	%-inhibition at 1 µmol/L, CLK2 [4, 22]	%-inhibition at 1 µmol/L, KIT [5, 22]	%-inhibition at 1 µmol/L, YES [6, 22]	%-inhibition at 1 µmol/L, JAK2 [8, 22]	%-inhibition, MARK1 [9, 22]	%-inhibition CaMK1δ [11, 22]	%-inhibition CDC2/CycB1 [12, 22]	%-inhibition CaMK2δ [15, 22]	%-inhibition CDK5/p25 [16, 22]	%-inhibition at 1 µmol/L, CK1ε [18, 22]	other results
CCc1cc2c(cc1N1CCC(N3CCOCC3)CC1)C(C)(C)c1[nH]c3cc(C#N)ccc3c1C2=O [alectinib]	57%	47%	-0.471%	44%	97%	-3%	3.54%	2.73%	2%												%-inhibition at 1 µmol/L, CLK2 [4, 20]: 14%; %-inhibition at 1 µmol/L, KIT [5, 20]: 0.373%; %-inhibition, MARK1 [9, 20]: 8%; %-inhibition at 1 µmol/L, ROS [10, 21]: 14%; %-inhibition CaMK1δ [11, 20]: -3.42%; %-inhibition at 1 µmol/L, TRKA [13, 20]: 62%; %-inhibition CaMK2δ [15, 20]: 37%; %-inhibition CDK5/p25 [16, 20]: -12%; %-inhibition, PAK1 [17, 20]: -14%; %-inhibition at 1 µmol/L, CK1ε [18, 20]: 4.48%
Cc1cc(Nc2ncc(Cl)c(Nc3ccccc3S(=O)(=O)C(C)C)n2)c(OC(C)C)cc1C1CCNCC1 [ceritinib]	102%	100%	1.8%	31%	36%	-5.35%	2.5%	16%	5.67%												%-inhibition at 1 µmol/L, CLK2 [4, 20]: 99%; %-inhibition, MARK1 [9, 20]: 8.55%; %-inhibition at 1 µmol/L, ROS [10, 21]: 101%; %-inhibition CaMK1δ [11, 20]: 48%; %-inhibition CaMK2δ [15, 20]: 76%; %-inhibition CDK5/p25 [16, 20]: -22%; %-inhibition, PAK1 [17, 20]: 7.58%; %-inhibition at 1 µmol/L, CK1ε [18, 20]: 5%
C[C@@H](Oc1cc(-c2cnn(C3CCNCC3)c2)cnc1N)c1c(Cl)ccc(F)c1Cl [crizotinib]										-2.27%	-6%	16%	65%	98%	27%	-4%	19%	4%	-8%	4%	%-inhibition at 1 µmol/L, TRKA [13, 22]: 103%; %-inhibition, p70S6K [14, 22]: 40%; %-inhibition, PAK1 [17, 22]: -4%
CC(C)(C)c1nc(-c2cccc(NS(=O)(=O)c3c(F)cccc3F)c2F)c(-c2ccnc(N)n2)s1 [dabrafenib]											0.875%	59%			-15%			-0.23%	22%	10%	%-inhibition at 1 µmol/L, IRR [1, 22]: 10%; %-inhibition at 1 µmol/L, PYK2 [2, 22]: 56%; %-inhibition, MSSK1 [7, 22]: 2.55%; %-inhibition at 1 µmol/L, ROS [10, 23]: 8.55%
CO[C@@H]1[C@H](N(C)C(=O)c2ccccc2)C[C@H]2O[C@]1(C)n1c3ccccc3c3c4c(c5c6ccccc6n2c5c31)C(=O)NC4 [midostaurin]	26%	72%	-1.38%	89%	-9%	99%	22%	82%	6.4%												%-inhibition at 1 µmol/L, ROS [10]: 102%; %-inhibition at 1 µmol/L, TRKA [13, 20]: 100%
CC(=O)Nc1cccc(-n2c(=O)n(C3CC3)c(=O)c3c(Nc4ccc(I)cc4F)n(C)c(=O)c(C)c32)c1 [trametinib]										-4%	-5%	-0.648%	-1.63%	1.75%	-17%	-3.3%	8%	-2.19%	19%	-5.38%	%-inhibition at 1 µmol/L, IRR [1, 22]: 1.35%; %-inhibition at 1 µmol/L, PYK2 [2, 22]: 2.72%; %-inhibition, MSSK1 [7, 22]: -5%; %-inhibition at 1 µmol/L, ROS [10, 23]: -0.611%; %-inhibition at 1 µmol/L, TRKA [13, 22]: -1.17%; %-inhibition, p70S6K [14, 22]: -1.39%; %-inhibition, PAK1 [17, 22]: -1.35%
CCCS(=O)(=O)Nc1ccc(F)c(C(=O)c2c[nH]c3ncc(-c4ccc(Cl)cc4)cc23)c1F [vemurafenib]										10%	-13%	58%	74%	18%	-9%	-7%	10%	-0.235%	5%	2.46%	%-inhibition at 1 µmol/L, IRR [1, 22]: 21%; %-inhibition at 1 µmol/L, PYK2 [2, 22]: 0.921%; %-inhibition, MSSK1 [7, 22]: -6.65%; %-inhibition at 1 µmol/L, ROS [10, 23]: 2%; %-inhibition at 1 µmol/L, TRKA [13, 22]: 16%; %-inhibition, p70S6K [14, 22]: 9%; %-inhibition, PAK1 [17, 22]: -5%
